Experimental data: PubChem BioAssay AID1259407 (Chemical Carcinogenesis Research Information System (CCRIS), 2018)
The source made the active and inactive calls. No rule for the calls is given here.

Test system: CCRIS mutagenicity, Ames/micronucleus/aberration tests
Experiment: CCRIS mutagenicity studies
[1] = Test System: AMES SALMONELLA TYPHIMURIUM, Strain/Indicator: TA98, Metabolic Activation: NONE, Method: PREINCUBATION
[2] = Test System: AMES SALMONELLA TYPHIMURIUM, Strain/Indicator: TA100, Metabolic Activation: NONE, Method: PREINCUBATION
[3] = Test System: AMES SALMONELLA TYPHIMURIUM, Strain/Indicator: TA1535, Metabolic Activation: NONE, Method: PREINCUBATION
[4] = Test System: AMES SALMONELLA TYPHIMURIUM, Strain/Indicator: TA1537, Metabolic Activation: NONE, Method: PREINCUBATION
[5] = Test System: AMES SALMONELLA TYPHIMURIUM, Strain/Indicator: TA1538, Metabolic Activation: NONE, Method: PREINCUBATION

Measured: mutagenic call

CC1=CC(=O)c2c(O)cccc2C1=O
inactive: Test System: AMES SALMONELLA TYPHIMURIUM, Strain/Indicator: TA98, Metabolic Activation: HAMSTER LIVER S-9, AROCLOR 1254, Method: STANDARD PLATE inactive; negative | [1] inactive; negative | Test System: AMES SALMONELLA TYPHIMURIUM, Strain/Indicator: TA98, Metabolic Activation: NONE, Method: STANDARD PLATE inactive; negative | Test System: AMES SALMONELLA TYPHIMURIUM, Strain/Indicator: TA98, Metabolic Activation: RAT LIVER S-9, AROCLOR 1254, Method: STANDARD PLATE inactive; negative | Test System: AMES SALMONELLA TYPHIMURIUM, Strain/Indicator: TA98, Metabolic Activation: RAT, LIVER, S-9, PHENOBARBITAL AND 5,6-BENZOFLAVONE, Method: PREINCUBATION inactive; negative | Test System: AMES SALMONELLA TYPHIMURIUM, Strain/Indicator: TA100, Metabolic Activation: HAMSTER LIVER S-9, AROCLOR 1254, Method: STANDARD PLATE inactive; negative | [2] inactive; negative | Test System: AMES SALMONELLA TYPHIMURIUM, Strain/Indicator: TA100, Metabolic Activation: NONE, Method: STANDARD PLATE inactive; negative | Test System: AMES SALMONELLA TYPHIMURIUM, Strain/Indicator: TA100, Metabolic Activation: RAT LIVER S-9, AROCLOR 1254, Method: STANDARD PLATE inactive; negative | Test System: AMES SALMONELLA TYPHIMURIUM, Strain/Indicator: TA102, Metabolic Activation: NONE, Method: PREINCUBATION inactive; negative | Test System: AMES SALMONELLA TYPHIMURIUM, Strain/Indicator: TA102, Metabolic Activation: NONE, Method: STANDARD PLATE inactive; negative | Test System: AMES SALMONELLA TYPHIMURIUM, Strain/Indicator: TA102, Metabolic Activation: RAT, LIVER, S-9, PHENOBARBITAL AND 5,6-BENZOFLAVONE, Method: PREINCUBATION inactive; negative | Test System: AMES SALMONELLA TYPHIMURIUM, Strain/Indicator: TA1535, Metabolic Activation: HAMSTER LIVER S-9, AROCLOR 1254, Method: STANDARD PLATE inactive; negative | [3] inactive; negative | Test System: AMES SALMONELLA TYPHIMURIUM, Strain/Indicator: TA1535, Metabolic Activation: NONE, Method: STANDARD PLATE inactive; negative | Test System: AMES SALMONELLA TYPHIMURIUM, Strain/Indicator: TA1535, Metabolic Activation: RAT LIVER S-9, AROCLOR 1254, Method: STANDARD PLATE inactive; negative | Test System: AMES SALMONELLA TYPHIMURIUM, Strain/Indicator: TA1535, Metabolic Activation: RAT, LIVER, S-9, PHENOBARBITAL AND 5,6-BENZOFLAVONE, Method: PREINCUBATION inactive; negative | Test System: AMES SALMONELLA TYPHIMURIUM, Strain/Indicator: TA1537, Metabolic Activation: HAMSTER LIVER S-9, AROCLOR 1254, Method: STANDARD PLATE inactive; negative | [4] inactive; negative | Test System: AMES SALMONELLA TYPHIMURIUM, Strain/Indicator: TA1537, Metabolic Activation: NONE, Method: STANDARD PLATE inactive; negative | Test System: AMES SALMONELLA TYPHIMURIUM, Strain/Indicator: TA1537, Metabolic Activation: RAT LIVER S-9, AROCLOR 1254, Method: STANDARD PLATE inactive; negative | [5] inactive; negative | Test System: AMES SALMONELLA TYPHIMURIUM, Strain/Indicator: TA1538, Metabolic Activation: RAT, LIVER, S-9, PHENOBARBITAL AND 5,6-BENZOFLAVONE, Method: PREINCUBATION inactive; negative | Test System: AMES SALMONELLA TYPHIMURIUM, Strain/Indicator: TA2638, Metabolic Activation: NONE, Method: STANDARD PLATE inactive; negative | Test System: Ames Salmonella typhimurium, Strain/Indicator: TA102, Metabolic Activation: None, Method: Preincubation inactive; negative | Test System: Ames Salmonella typhimurium, Strain/Indicator: TA102, Metabolic Activation: Rat, Liver, S-9, Aroclor 1254 in 0.154 M KCl, Method: Preincubation inactive; negative | Test System: E. COLI, Strain/Indicator: WP2 (PKM101), Metabolic Activation: NONE, Method: STANDARD PLATE inactive; negative | Test System: E. COLI, Strain/Indicator: WP2 UVRA (PKM101), Metabolic Activation: NONE, Method: STANDARD PLATE inactive; negative | Test System: MOUSE LYMPHOMA, Strain/Indicator: L5178Y (TK+/TK-), Metabolic Activation: NONE, Method: SUSPENSION/PLATE inactive; positive. reevaluation of results: negative
active: Test System: AMES SALMONELLA TYPHIMURIUM, Strain/Indicator: TA97, Metabolic Activation: NONE, Method: PREINCUBATION active; positive | Test System: AMES SALMONELLA TYPHIMURIUM, Strain/Indicator: TA97, Metabolic Activation: RAT, LIVER, S-9, PHENOBARBITAL AND 5,6-BENZOFLAVONE, Method: PREINCUBATION active; positive | Test System: AMES SALMONELLA TYPHIMURIUM, Strain/Indicator: TA100, Metabolic Activation: RAT, LIVER, S-9, PHENOBARBITAL AND 5,6-BENZOFLAVONE, Method: PREINCUBATION active; positive | Test System: AMES SALMONELLA TYPHIMURIUM, Strain/Indicator: TA104, Metabolic Activation: NONE, Method: PREINCUBATION active; positive | Test System: AMES SALMONELLA TYPHIMURIUM, Strain/Indicator: TA104, Metabolic Activation: RAT, LIVER, S-9, PHENOBARBITAL AND 5,6-BENZOFLAVONE, Method: PREINCUBATION active; positive | Test System: AMES SALMONELLA TYPHIMURIUM, Strain/Indicator: TA1537, Metabolic Activation: RAT, LIVER, S-9, PHENOBARBITAL AND 5,6-BENZOFLAVONE, Method: PREINCUBATION active; positive | Test System: AMES SALMONELLA TYPHIMURIUM, Strain/Indicator: TA2637, Metabolic Activation: NONE, Method: PREINCUBATION active; positive | Test System: AMES SALMONELLA TYPHIMURIUM, Strain/Indicator: TA2637, Metabolic Activation: RAT, LIVER, S-9, PHENOBARBITAL AND 5,6-BENZOFLAVONE, Method: PREINCUBATION active; positive | Test System: MOUSE LYMPHOMA, Strain/Indicator: L5178Y (TK+/TK-), Metabolic Activation: RAT, LIVER, S-9, AROCLOR 1254, Method: SUSPENSION/PLATE active; positive. reevaluation of results: equivocal

F[B-](F)(F)F
inactive: [1] inactive; negative | Test System: AMES SALMONELLA TYPHIMURIUM, Strain/Indicator: TA98, Metabolic Activation: RAT, LIVER, S-9, KC 500, Method: PREINCUBATION inactive; negative | [2] inactive; negative | Test System: AMES SALMONELLA TYPHIMURIUM, Strain/Indicator: TA100, Metabolic Activation: RAT, LIVER, S-9, KC 500, Method: PREINCUBATION inactive; negative | [3] inactive; negative | Test System: AMES SALMONELLA TYPHIMURIUM, Strain/Indicator: TA1535, Metabolic Activation: RAT, LIVER, S-9, KC 500, Method: PREINCUBATION inactive; negative | [4] inactive; negative | Test System: AMES SALMONELLA TYPHIMURIUM, Strain/Indicator: TA1537, Metabolic Activation: RAT, LIVER, S-9, KC 500, Method: PREINCUBATION inactive; negative | [5] inactive; negative | Test System: AMES SALMONELLA TYPHIMURIUM, Strain/Indicator: TA1538, Metabolic Activation: RAT, LIVER, S-9, KC 500, Method: PREINCUBATION inactive; negative | Test System: E. COLI, Strain/Indicator: WP2 UVRA, Metabolic Activation: NONE, Method: PREINCUBATION inactive; negative | Test System: E. COLI, Strain/Indicator: WP2 UVRA, Metabolic Activation: RAT, LIVER, S-9, KC 500, Method: PREINCUBATION inactive; negative
